This passage reports EC50 results from ChEMBL document CHEMBL1137808, “Biologically active proteins from natural product extracts” (J Nat Prod, 2001).

One may read the EC50 as the midpoint of the concentration-response curve.

In brackets after ≈: the same amount, converted by molar mass. Bridge positions count the residues as written; N and C are the ends. Peptide text beside a SMILES is read from it.

The subject of the first assay is Human immunodeficiency virus 1. Put plainly: Antiviral activity against HIV1. In kind it is functional, organism-based.
Settings: not given
On to `CC[C@H](C)[C@@H]1NC(=O)[C@@H]2CSSC[C@@H]3NC(=O)[C@H](C(C)C)NC(=O)[C@H](CCCCN)NC(=O)[C@H](CC(N)=O)NC(=O)[C@H](CCCCN)NC(=O)[C@@H]4CSSC[C@H](NC(=O)[C@H](CO)NC(=O)[C@H](CCC(=O)O)NC(=O)CNC(=O)[C@H](CSSC[C@H](NC(=O)CNC(=O)[C@H](CC(C)C)NC(=O)[C@H](C)NC(=O)[C@H](C)NC(=O)[C@H](CO)NC1=O)C(=O)N[C@@H](CO)C(=O)N4)NC(=O)[C@@H]1CCCN1C(=O)[C@H]([C@@H](C)CC)NC(=O)CNC(=O)[C@H](CC(N)=O)NC(=O)[C@H](CCCNC(=N)N)NC(=O)[C@H](Cc1ccc(O)cc1)NC3=O)C(=O)N[C@@H](C(C)C)C(=O)N[C@@H](Cc1c[nH]c3ccccc13)C(=O)N[C@@H]([C@@H](C)CC)C(=O)N1CCC[C@H]1C(=O)N2` [CIRCULIN A] (cyclo(AALGCSCKNKVCYRNGIPCGESCVWIPCIS); disulfide 5-19, 7-23, 12-28), for which the midpoint of the response, the EC50, lay at 40 nM. The same measure, in the same setting: next, `CC[C@H](C)[C@@H]1NC(=O)[C@@H]2CSSC[C@@H]3NC(=O)[C@H](C(C)C)NC(=O)[C@H](CCCCN)NC(=O)[C@H](CC(N)=O)NC(=O)[C@H](CCCCN)NC(=O)[C@@H]4CSSC[C@H](NC(=O)[C@H](CO)NC(=O)[C@H](CCC(=O)O)NC(=O)CNC(=O)[C@H](CSSC[C@H](NC(=O)CNC(=O)[C@H](CC(C)C)NC(=O)[C@H](CC(C)C)NC(=O)[C@H]([C@@H](C)O)NC(=O)[C@H](CO)NC1=O)C(=O)N[C@@H](CO)C(=O)N4)NC(=O)[C@@H]1CCCN1C(=O)[C@H]([C@@H](C)CC)NC(=O)[C@H](C(C)C)NC(=O)CNC(=O)[C@H](CC(N)=O)NC(=O)[C@H](CCCNC(=N)N)NC(=O)[C@H](Cc1ccc(O)cc1)NC3=O)C(=O)N[C@@H](C(C)C)C(=O)N[C@@H](Cc1ccccc1)C(=O)N[C@@H]([C@@H](C)CC)C(=O)N1CCC[C@H]1C(=O)N2` [CIRCULIN B] (cyclo(CGESCVFIPCISTLLGCSCKNKVCYRNGVIP); disulfide 1-17, 5-19, 10-24): 40 nM. `CC[C@H](C)[C@@H]1NC(=O)[C@@H]2CSSC[C@@H]3NC(=O)[C@H](C(C)C)NC(=O)[C@H](CCCCN)NC(=O)[C@H](CO)NC(=O)[C@H](CCCCN)NC(=O)[C@@H]4CSSC[C@H](NC(=O)[C@H](CO)NC(=O)[C@H](CCC(=O)O)NC(=O)CNC(=O)[C@H](CSSC[C@H](NC(=O)CNC(=O)[C@H](C)NC(=O)[C@H](C(C)C)NC(=O)[C@H](CO)NC(=O)[C@H]([C@@H](C)O)NC1=O)C(=O)N[C@@H](CO)C(=O)N4)NC(=O)[C@@H]1CCCN1C(=O)[C@H]([C@@H](C)CC)NC(=O)CNC(=O)[C@H](CC(N)=O)NC(=O)[C@H](CCCNC(=N)N)NC(=O)[C@H](Cc1ccc(O)cc1)NC3=O)C(=O)N[C@@H](C(C)C)C(=O)N[C@@H](Cc1ccccc1)C(=O)N[C@@H]([C@@H](C)CC)C(=O)N1CCC[C@H]1C(=O)N2` [CIRCULIN C] (cyclo(AGCSCKSKVCYRNGIPCGESCVFIPCITSV); disulfide 3-17, 5-21, 10-26) displayed an EC50 of 40 nM. On to `CC[C@H](C)[C@@H]1NC(=O)[C@H](CO)NC(=O)[C@H]([C@@H](C)O)NC(=O)[C@H](Cc2ccc(O)cc2)NC(=O)[C@@H]2CSSC[C@@H]3NC(=O)[C@H](C(C)C)NC(=O)[C@H](CCCCN)NC(=O)[C@H](CC(N)=O)NC(=O)[C@H](CCC(=O)O)NC(=O)[C@@H]4CSSC[C@H](NC(=O)[C@H](CO)NC(=O)[C@H](CCC(=O)O)NC(=O)CNC(=O)[C@H](CSSC[C@H](NC(=O)[C@H](CC(N)=O)NC(=O)[C@H](Cc5ccccc5)NC1=O)C(=O)N[C@@H](CCCCN)C(=O)N4)NC(=O)[C@@H]1CCCN1C(=O)[C@H]([C@@H](C)CC)NC(=O)[C@H](CCCCN)NC(=O)[C@H](CC(=O)O)NC(=O)[C@H](Cc1cnc[nH]1)NC(=O)[C@H](Cc1ccc(O)cc1)NC3=O)C(=O)N[C@@H](C(C)C)C(=O)N[C@@H](Cc1c[nH]c3ccccc13)C(=O)N[C@@H]([C@@H](C)CC)C(=O)N1CCC[C@H]1C(=O)N2` [CIRCULIN D] (cyclo(CENKVCYHDKIPCGESCVWIPCYTSIFNCK); disulfide 1-17, 6-22, 13-29), for which a half-maximal effect (EC50) was put at 40 nM. The molecule `CC[C@H](C)[C@@H]1NC(=O)[C@H](CCCCN)NC(=O)[C@H](CC(=O)O)NC(=O)[C@H](Cc2cnc[nH]2)NC(=O)[C@H](Cc2ccc(O)cc2)NC(=O)[C@@H]2CSSC[C@@H]3NC(=O)[C@@H]4CCCN4C(=O)[C@H]([C@@H](C)CC)NC(=O)[C@H](Cc4c[nH]c5ccccc45)NC(=O)[C@H](C(C)C)NC(=O)[C@@H]4CSSC[C@H](NC(=O)[C@H](CCCCN)NC(=O)[C@H](CSSC[C@H](NC(=O)[C@@H]5CCCN5C1=O)C(=O)NCC(=O)N[C@@H](CCC(=O)O)C(=O)N[C@@H](CO)C(=O)N4)NC(=O)[C@H](CC(N)=O)NC(=O)[C@H](Cc1ccccc1)NC(=O)[C@H](C(C)C)NC(=O)[C@H](CO)NC(=O)[C@H]([C@@H](C)O)NC(=O)[C@H](CC(C)C)NC3=O)C(=O)N[C@@H](CCC(=O)O)C(=O)N[C@@H](CC(N)=O)C(=O)N[C@@H](CCCCN)C(=O)N[C@@H](C(C)C)C(=O)N2` [CIRCULIN E] (cyclo(CENKVCYHDKIPCGESCVWIPCLTSVFNCK); disulfide 1-17, 6-22, 13-29) returned a concentration for a half-maximal effect (EC50) of 40 nM.

In the case of `CC[C@H](C)[C@@H]1NC(=O)[C@H](C)NC(=O)[C@H](C)NC(=O)[C@H](CO)NC(=O)[C@H]([C@@H](C)CC)NC(=O)[C@@H]2CSSC[C@@H]3NC(=O)[C@H](C(C)C)NC(=O)[C@H](CCCCN)NC(=O)[C@H](CC(N)=O)NC(=O)[C@H](CCCCN)NC(=O)[C@@H]4CSSC[C@H](NC(=O)[C@H](CO)NC(=O)[C@H](CCC(=O)O)NC(=O)CNC(=O)[C@H](CSSC[C@H](NC(=O)CNC1=O)C(=O)N[C@@H](CO)C(=O)N4)NC(=O)[C@@H]1CCCN1C(=O)[C@H]([C@@H](C)CC)NC(=O)[C@H](C)NC(=O)[C@H](CCCNC(=N)N)NC(=O)[C@H](Cc1ccc(O)cc1)NC3=O)C(=O)N[C@@H](C(C)C)C(=O)N[C@@H](Cc1c[nH]c3ccccc13)C(=O)N[C@@H]([C@@H](C)CC)C(=O)N1CCC[C@H]1C(=O)N2` [CIRCULIN F] (cyclo(AAIGCSCKNKVCYRAIPCGESCVWIPCIS); disulfide 5-18, 7-22, 12-27), the EC50 worked out at 40 nM.

In a further assay the test system is Human immunodeficiency virus. Kind of assay: Antiviral activity against HIV infected in human MOLT4 cells assessed as inhibition of virus-induced cytopathic effect. In kind it is functional, organism-based. Particulars: Human immunodeficiency virus 1, MOLT-4. (In general: Cytopathic effects are the visible damage that an infection or toxin causes in cultured cells.)
Turning to `CC(C)[C@@H]1NC(=O)[C@H](CCCNC(=N)N)NC(=O)[C@H](Cc2ccccc2)NC(=O)[C@@H](NC(=O)[C@H](Cc2c[nH]c3ccccc23)NC(=O)[C@H](CCCNC(=N)N)NC(=O)[C@@H](N)CCCNC(=N)N)CSSC[C@@H]2NC(=O)[C@H](Cc3ccccc3)NC(=O)CNC(=O)[C@H](CCCCN)NC(=O)[C@H](Cc3ccc(O)cc3)NC(=O)[C@H](CSSC[C@@H](C(=O)N[C@@H](CCCNC(=N)N)C(N)=O)NC(=O)[C@H](CCCCN)NC(=O)[C@H](CCCNC(=N)N)NC(=O)[C@H](Cc3ccc(O)cc3)NC2=O)NC1=O` [POLYPHEMUSIN II] (H-RRWCFRVCYKGFCYRKCR-NH2; disulfide 4-13, 8-17), the concentration for a half-maximal effect (EC50) is 8 ng/mL (≈ 3.3 nM).
